# From PubChem BioAssay AID624374 (Broad Institute, 2012)
# Inconclusive results are not listed. Calls of active or inactive are those of the source. How the calls were made is not given here.
# System: HEK293 viability counterscreen, plate reader
# Test: cytotoxicity in HEK293 background cells – cell-based, dry powder, set 2, counter-screen for EBV LMP1 inhibitor project, dose response (AID 624374)
row,Compound,AC35
1,CC(C)(C)[S@@](=O)N1Cc2cc(C(=O)NCc3ccccc3F)nc(-c3cccc(-c4ccncc4)c3)c2[C@H]1CCO,> 35 µM (inactive)
2,Cc1cc(C(=O)Nc2ccc3c(c2)C(=O)N(C)[C@@H]2CC[C@@H](CC(=O)NCc4ccc(-c5ccccc5)cc4)O[C@H]2CO3)no1,> 35 µM (inactive)
3,C[C@H](CO)N1C[C@H](C)[C@@H](CN(C)Cc2ccc(C(F)(F)F)cc2)Oc2ccc(NC(=O)Cc3ccccc3)cc2CC1=O,> 35 µM (inactive)
4,Cc1ccc(S(=O)(=O)N(C)C[C@H]2Oc3cc(C#Cc4ccncc4)ccc3S(=O)(=O)N([C@@H](C)CO)C[C@@H]2C)cc1,> 35 µM (inactive)
